In the experiment the test system is C2Cl2 myotubes. The experiment is described as follows: C2Cl2 myotubes treated with IL-6. It counts as cell-based, mouse. How it is done:
FIG. 22A. Representative western blots from C2Cl2 myotubes treated with IL-6 (100 ng/ml) for different times (left panel). Fold-changes in the densities of proteins corrected for GAPDH at different times calculated from values at time zero (right panel), n=3 repeats; *p<0.05 vs. time zero. FIG. 22B. C2Cl2 myotubes were infected with a lentivirus expressing constitutively active Stat3 (Stat3C-GFP). A representative western blot for the indicated proteins is shown. FIG. 22C. C2Cl2 myotubes were treated with or without C188-9 for 2 h before adding IL-6 (100 ng/ml) for 24 h. A representative western blot for the indicated proteins is shown. FIG. 22D. C2Cl2 myoblasts were co-transfected with a plasmid expressing C/EBPδ promoter-driven luciferase, Renila plus a lentivirus expressing Stat3C-GFP and treated with or without IL-6. Dual luciferase activity was measured (n=3 repeats; *p<0.05 vs respective GFP control). FIG. 22E. C2Cl2 myoblasts were transfected with control siRNA or C/EBPδ siRNA and after differentiation to myotubes were treated with or without IL-6. Representative western blots of Stat3, C/EBPδ and myostatin are shown. FIG. 22F. C2Cl2 myoblasts were co-transfected with a plasmid expressing the myostatin promoter-driven luciferase plus plasmids (cDNA3 control, Stat3C, C/EBPδ, C/EBPδ siRNA or Stat3C plus C/EBPδ siRNA) and treated with or without IL6. Luciferase activity was measured (n=3 repeats; *p<0.05 vs. cDNA3 CTRL). FIG. 22G. C2Cl2 myoblasts were transfected with lentivirus expressing a siRNA to myostatin. […] In these cells, protein degradation (upper panel; n=6 repeats, #p<0.05 vs GFP control, *p<0.05 vs siRNA CTRL) was measured.
C2Cl2 myotubes were treated with or without C188-9 for 1 or 24 h and RT-PCR was used to assess mRNA levels. […]
C2Cl2 myotubes were treated with C188-9, a Stat3 inhibitor, for 2 h before adding IL-6 (100 ng/ml) for 24 h. Myotube sizes were measured (mean±SEM; n=3 independent experiments; *, p<0.05 vs. untreated myotubes).
C2Cl2 myoblasts (ATCC, Manassas, Va.) were grown in high glucose Dulbecco's Modified Eagle's Medium (DMEM) supplemented with 10% FBS, 100 U/ml penicillin, […], […] sodium pyruvate and 2 mM L-glutamine. […] Myotube sizes were evaluated by NIS-element software. […] Alternatively, 2 μg plasmids expressing Stat3C or C/EBPδ or C/EBPδ promoter- or myostatin promoter-reporter luciferase construct were trasfected (control, Renilla) and luciferase activities was measured using the Promega assay (Madison, Wis.).
Muscle samples (1 mg per 10 μl of RIPA buffer) or C2Cl2 myotubes were homogenized in RIPA buffer containing Complete Mini Protease Inhibitor and PhosStop Phosphatase Inhibitor (Roche Applied Science, Indianapolis, Ind.). […] The band density of target proteins was quantified using NIH ImageJ Software.

Setting [1] is: C188-9 2 h before IL-6 100 ng/ml for 24 h.

Take `COc1ccc(S(=O)(=O)Nc2cc(-c3c(O)ccc4ccccc34)c(O)c3ccccc23)cc1` [C188-9]: under setting [1], the “IL-6-induced increase in p-Stat3, C/EBPδ and myostatin” value is on record as “blocked these responses”; the “decrease in myotubes size induced by IL-6” value was “prevented the decrease”. For the setting “IL-6-treated C2Cl2 myotubes”, the “C/EBPδ and myostatin mRNAs” value was “suppressed”; the p-Akt entry is recorded as “increased p-Akt”.

Values taken from patent US11161831B2, “Methods and compositions for treatment of muscle wasting, muscle weakness, and/or cachexia” (Baylor College of Medicine, priority 2013, dated 2021).
